Test results reported in patent publication US8865655B2, “Depsipeptides and their therapeutic use” (Karus Therapeutics Limited, priority 2006, dated 2014).

Test system: HDAC (Hela Nuclear Extract)
Assay: In vitro HDAC fluorescent activity assay (Biomol kit, Fluor de Lys substrate) with Hela Nuclear Extract
Type: biochemical
Settings: compounds reduced with 30 mM DTT prior to analysis; diluted Hela Nuclear Extract; 37° C. for 1 hour; mean of duplicate samples
Experimental: In vitro HDAC assays were performed using a HDAC fluorescent activity assay kit (Biomol, UK) according to the manufacturer's instructions. Compounds were reduced prior to analysis; 1 mM compound was reduced with 30 mM DTT in DMSO overnight at room temperature, protected from light. Reactions were then set up in a 96-well plate. For each reaction 10 μl compound (5× required concentration in assay buffer) was mixed with […] diluted Hela Nuclear Extract (30-fold in assay buffer). Serial dilutions were set up for each compound. Reactions containing Hela extract only and assay buffer only were also set up. 25 μl diluted Fluor de Lys™ substrate (100-fold in assay buffer) was added to each reaction, which were then incubated at 37° C. for 1 hour. The reaction was stopped by addition of 50 μl Fluor de Lys™ Developer (20-fold dilution in assay buffer, plus TSA diluted 100-fold). The reactions were then incubated at room temperature for 10 minutes before fluorescence was measured using a CytoFluor II Fluorescence Multiwell Plate Reader and CytoFluor II software with filters set at […] for excitation and […] for emission. Inhibition of in vitro HDAC activity was determined for mean values of duplicate samples as percentages relative to HeLa extract only reactions. IC50 values were calculated using GraphPad Prism software.

IC50 [nM]	SMILES
126 ± 5.3	CC(=O)SCC/C=C/[C@@H]1CC(=O)N[C@H](C)C(=O)N[C@H](Cc2ccccc2)C(=O)N[C@H](C(C)C)C(=O)NCC(=O)O1 [Compound 17, Thioacetic acid S-[(E)-4-((6R,9R,12R,16S)-9-benzyl-6-isopropyl-12-methyl-2,5,8,11,14-pentaoxo-1-oxa-4,7,10,13-tetraaza-cyclohexadec-16-yl)-but-3-enyl]ester]
47 ± 9.9	CC(C)[C@H]1NC(=O)[C@@H](Cc2ccccc2)NC(=O)[C@@H](C)NC(=O)C[C@@H](/C=C/CCS)OC(=O)CNC1=O [Compound 16, (6R,9R,12R,16S)-9-Benzyl-6-isopropyl-16-((E)-4-mercapto-but-1-enyl)-12-methyl-1-oxa-4,7,10,13-tetraaza-cyclohexadecane-2,5,8,11,14-pentaone]
